Reference: patent US20010047027A1, “Prostaglandin D2 receptor antagonists” (priority 2000, published 2001)

Biological target: T1, prostanoid DP receptor (prostaglandin D receptor) (Homo sapiens, UniProt Q13258)
T1 construct: expressed in transfected cells; host or cells: HEK293(EBNA) cells; membranes, 160,000 x g fraction
T1 sequence (Q13258 1-359): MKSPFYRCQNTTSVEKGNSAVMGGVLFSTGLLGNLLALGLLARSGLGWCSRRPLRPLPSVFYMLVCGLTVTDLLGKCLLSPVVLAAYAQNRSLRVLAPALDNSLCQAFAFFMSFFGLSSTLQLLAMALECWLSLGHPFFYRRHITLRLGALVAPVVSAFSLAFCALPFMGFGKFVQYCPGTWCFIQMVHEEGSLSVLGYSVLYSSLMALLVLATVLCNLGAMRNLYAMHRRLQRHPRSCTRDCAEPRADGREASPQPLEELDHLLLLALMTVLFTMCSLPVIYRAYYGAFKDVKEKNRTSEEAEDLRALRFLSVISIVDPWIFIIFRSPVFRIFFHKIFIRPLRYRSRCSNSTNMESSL
Experiment: Radioligand binding assay using membranes from cells that express recombinant prostanoid DP receptor
Conditions: for Ki: membranes of HEK293(EBNA) cells expressing DP, 0.7 nM [3H]PGD2, 60 min at room temperature, n = 5, read-out: Affinity (Ki) for the prostaglandin D receptor; for affinity for the prostaglandin D2 receptor, in words: comparison of the 1R isomers with the other two diastereomers
Method: Radioligand binding assays using membranes from cells that express recombinant prostanoid DP receptor (DP).
Radioligand binding assays are conducted essentially as previously described (Abramovitz et al., Biochem. Biophys. Acta 1483-2, 285-293, 2000). HEK293(EBNA) cells expressing DP are grown in supplemented DMEM complete medium at 37° C. in a humidified atmosphere of 6% CO2 in air, and then harvested. Cells are disrupted by nitrogen cavitation at 800 psi for 30 min. on ice in the presence of protease inhibitors (2 mM phenylmethylsulfonylfluoride, 10 μM E-64, 100 μM leupeptin and 0.05 mg/mL pepstatin). Membranes are prepared by differential centrifugation (1000×g for 10 min, then 160,000×g for 30 min, all at 4° C.). The 160,000×g pellets are resuspended in 10 mM HEPES/KOH (pH 7.4) containing 1 mM EDTA at approximately 5-10 mg/mL protein by Dounce homogenization (Dounce A; 10 strokes), frozen in liquid nitrogen and stored at −80° C. DP receptor binding assays are performed in a final incubation volume of 0.2 mL in 10 mM HEPES/KOH (pH 7.4), containing 1 mM EDTA, 10 mM MnCl2, 0.7 nM [^3H]PGD2 (115-200 Ci/mmol). The reaction was initiated by addition of 30-60 μg membrane protein from the 160,000×g fraction. Test compounds are added in dimethylsulfoxide (Me2SO) at 1% (v/v) in all incubations. Non-specific binding was determined in the presence of 1-10 μM of non-radioactive PGD2. Incubations are conducted for 60 min. at room temperature. Incubations are terminated by rapid filtration at 4° C. Radioactivity bound to the individual filters is determined by scintillation counting. Maximum specific binding is defined as the total binding minus the non-specific binding. Specific binding is determined at each concentration of test compound and is expressed as a percentage of the maximum specific binding. Sigmoidal equilibrium competition curves were constructed by expressing percentage maximum specific binding as a function of ligand concentration and analyzed by a validated custom designed software employing a simplex driven non-linear least-squares curve fitting routine based on a four parameter equation to determine the inflection point concentration (InPt). The corresponding Kivalues were derived from the equation Ki=InPt/1+([radioligand]/KD).

Ki | affinity for the prostaglandin D2 receptor, in words | SMILES
0.119 ± 0.039 µM | – | C[S+]([O-])c1cccc2c3c(n(Cc4ccc(Cl)cc4)c12)C(CC(=O)O)CCC3 (single isomer, unassigned) [Enantiomer of Ia, reference compound]
0.072 ± 0.004 µM | – | C[S+]([O-])c1cccc2c3c(n(Cc4ccc(Cl)cc4)c12)C(CC(=O)O)CCC3 (single isomer, unassigned) [Enantiomer of Ib, reference compound]
0.0017 ± 0.0003 µM | much higher affinity | C[S@+]([O-])c1cccc2c3c(n(Cc4ccc(Cl)cc4)c12)[C@@H](CC(=O)O)CCC3 [Compound Ia, 2-[(1R)-9-(4-chlorobenzyl)-8-((S)-methylsulfinyl)-2,3,4,9-tetrahydro-1H-carbazol-1-yl]acetic acid]
0.0021 ± 0.0001 µM | much higher affinity | C[S@@+]([O-])c1cccc2c3c(n(Cc4ccc(Cl)cc4)c12)[C@@H](CC(=O)O)CCC3 [Compound Ib, 2-[(1R)-9-(4-chlorobenzyl)-8-((R)-methylsulfinyl)-2,3,4,9-tetrahydro-1H-carbazol-1-yl]acetic acid]
